{"source": "patent US5989846A", "about": "“Assays to identify inducers of plant defense resistance” (Rutgers, The State University of New Jersey, priority 1995, dated 1999)", "key": {"[1]": {"tested_on": "salicylic acid binding protein", "experiment": "Effect of antioxidants on salicylic acid binding activity", "set-up": "species or system tobacco", "settings": "20 mM citrate, 5 mM MgCl, 10% glycerol pH 6.5, FIG. 5", "procedure": "This was measured in buffers containing 20 mM citrate, 5 mM MgCl and 10% glycerol pH 6.5 in addition to the indicated concentrations of antioxidant.\nA key element during the characterization and the purification process is a simple, inexpensive, sensitive and reliable method for determining the salicylic acid binding activity. For this purpose, spin-column exclusion chromatography was used to separate the bound [^14 C] salicylic acid (excluded) from the bulk free salicylic acid (included). Specifically, a 1.5 ml Eppendorf tube was punctured at the tip with a 20-gauge needle and a small amount of glass wool was added to cover the small hole. The tube was then filled with Bio-Gel P-6DG desalting gel (exclusion limit 6 KDa; purchased from Bio-Rad, Melville, N.Y.) which have been swollen in water. An alternative gel is Sephadex G-25 fine (from Pharmacia, Piscataway, N.J.). Excess liquid in the gel was removed and centrifuged for 5 minutes at full speed in a Dynamic centrifuge (Becton Dickinson). The process was then repeated several times until the gel filled the tube. After incubation of an aliquot of the extract or column fractions for 2 hr at 4° C. with 5 μM-20 μM [^14 C salicylic acid] (specifically radioactivity 55 Ci/mol; purchased from New England Nuclear), 150 μl of proteins binding sample was loaded onto the tube column, which was then rapidly centrifuged for 2 minutes at full speed and the solution of proteins and bound [^14 C-salicylic acid] that was excluded from the gel was collected into another tube that had been placed under the tube column during the centrifugation. One hundred microliters of this solution was then used to determine the amount of bound salicylic acid. […] For example, to determine the inhibitory effect of various salicylic acid analogues on salicylic acid binding activity, these individual analogues were included in the binding mixture containing both the protein and [^14 C] salicylic acid during the 2 hr incubation, and resulting binding activity was determined in comparison to the activity in the absence of these analogues. […]"}, "TMV": {"tested_on": "TMV", "type": "in vivo, tobacco mosaic virus", "settings": "for Enhanced resistance to TMV infection (reduction in lesion size): N.t. cv. Xanthi nc plants, compared to water-treated control plants", "procedure": "The SA/SAG valves are given in micrograms per gram fresh weight of leaf tissue and represent averages of values from 3-6 treated plants at 6 days past injection. […] For determination of reduction in lesion size, longitudinal halves of 2 leaves on 3-6 plants were injection with chemicals, and six days later the entire leaf was infected with TMV. Twenty lesions were measured on each half of the leaf seven days post infection; the values given represent the average percent reduction in lesion diameter in the treated leaf half compared to the untreated half."}, "horseradish peroxidase": {"target": "T1, horseradish peroxidase (Armoracia rusticana, UniProt P00433)", "T1 construct": "purchased Sigma", "T1 sequence (P00433 31-353)": "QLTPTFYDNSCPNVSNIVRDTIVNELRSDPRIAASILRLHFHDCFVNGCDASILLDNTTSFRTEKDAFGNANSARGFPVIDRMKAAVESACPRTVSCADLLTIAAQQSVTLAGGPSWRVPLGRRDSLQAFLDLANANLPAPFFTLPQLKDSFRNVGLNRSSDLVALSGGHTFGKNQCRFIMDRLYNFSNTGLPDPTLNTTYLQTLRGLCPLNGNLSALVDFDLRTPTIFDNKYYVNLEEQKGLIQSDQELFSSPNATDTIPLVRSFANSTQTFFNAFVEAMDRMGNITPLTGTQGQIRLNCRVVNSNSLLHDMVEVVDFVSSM", "experiment": "Horseradish peroxidase activity", "type": "biochemical", "procedure": "Horseradish peroxidase (1 mg; obtained from Sigma) was dissolved in 1.5 ml 200 mM potassium phosphate, pH 6.2, containing 150 mM NaCl. Following a 15 minute incubation at room temperature, the enzyme solution was centrifuged (10,000 g, 10 minutes). After buffer exchange (PD-10, equilibrated with 25 mM potassium phosphate, pH 6.2), the protein concentration was adjusted to 0.5 mg/ml.\n(§1) Guaiacol peroxidase activity was determined by the method of Chance and Maehly (Methods Enzymol. 2: 764 (1955)) using guaiacol as the substrate.\n(§2) The formation of tetraguaiacol was monitored at 470 nm. The reaction mixture contained 0.25% guaiacol and 100 mM hydrogen peroxide in 20 mM potassium phosphate, pH 6.2. The amount of protein per 1 ml assay was […]. The reaction was measured for five minutes. The assay for horseradish peroxidase was identical, except that only 0.2-0.5 μg protein was used."}, "guaiacol peroxidases": {"tested_on": "guaiacol peroxidases", "experiment": "Guaiacol peroxidase activity in tobacco leaf extracts", "type": "biochemical, Nicotiana tabacum cv. Xanthi nc", "procedure": "Inhibition of peroxidase by SA and INA was determined by measuring the enzyme activities in extracts prepared from tobacco leaves in the absence or presence of 100 μM or 1000 μM SA or INA. Two grams of leaves from 6-8 week old tobacco plants (Nicotiana tabacum cv. Xanthi nc) grown at 22° C. in a 14 hr light cycle were homogenized under liquid nitrogen using a pestle and mortar.\nTotal guaiacol peroxidase activity was extracted with 100 mM potassium phosphate, pH 6.2, containing 1% (weight/volume) polyvinylpyrrolidone. In order to also extract the ionically bound cell wall isozymes, the extraction buffer was supplemented with 600 mM KCl. Extraction and centrifugation steps were as described for ascorbate peroxidase. After removal of cell debris and ammonium sulfate precipitation (85%), the extract was desalted against 50 mM potassium phosphate, pH 6, containing 25% glycerol. The extract could be stored at -20° C. without significant loss of peroxidase activity.\nas §1, §2"}, "ascorbate peroxidase": {"target": "ascorbate peroxidase", "experiment": "Ascorbate peroxidase activity in tobacco leaf extracts", "type": "biochemical, Nicotiana tabacum cv. Xanthi nc", "settings": "for % Inhibition of ascorbate peroxidase: 200 μM compound, corrected for quenching of auto oxidation", "procedure": "[…] Two grams of leaves from 6-8 week old tobacco plants (Nicotiana tabacum cv. Xanthi nc) grown at 22° C. in a 14 hr light cycle were homogenized under liquid nitrogen using a pestle and mortar.\nTo obtain ascorbate peroxidase-containing extracts, the soluble proteins were extracted by grinding the powder in 10 ml of 100 mM potassium phosphate, pH 7, containing […] ascorbate and 1% (weight/volume) polyvinylpyrrolidone, with a small amount of quartz sand. The homogenate was centrifuged at 14,000 g for 5 min. […] The pellet resulting from centrifugation (14,000 g, 15 min.) was resuspended in extraction buffer (100 mM potassium phosphate, pH7, containing 0.25 mM ascorbate and 1% (weight/volume) polyvinylpyrrolidone) and desalted on a PD-10 column (Pharmacia) equilibrated with 50 mM potassium phosphate, pH 7, containing 100 μM ascorbate. The extract was used immediately. […] The amount of protein per assay was 30-50 μg. Oxidation of ascorbate was followed by the decrease in the absorbance at 290 nm.\nThe values illustrated in FIG. 17 are the mean values for three replicated assays."}, "SABP/catalase": {"tested_on": "SABP/catalase", "experiment": "Competition with 14C-labeled SA for SABP/catalase in crude leaf extracts", "type": "binding, tobacco", "settings": "in vitro"}, "PR1 genes": {"tested_on": "PR1 genes", "experiment": "PR-1 protein/gene expression in tobacco leaves (immunoblot)", "type": "in vivo", "settings": "for Induction of PR-1 protein synthesis / PR-1 gene induction (in words): N.t. cv. Xanthi nc", "procedure": "The level of PR1 protein in tobacco leaves was analyzed by immunoblot analysis to establish biological activity. Three leaf discs (1 cm in diameter) were homogenized in 200 microliters of buffer containing 50 mM Tris (pH 8.0), 1 mM EDTA, 12 mM beta-mercaptoethanol and 10 mg/ml phenylmethylsulfonyl fluoride. The homogenate was centrifuged at full speed for 10 minutes in an Eppendorf microcentrifuge. The supernatant was fractionated with 15% polyacrylamide gel under denatured conditions. Protein blotting was done with a monoclonal antibody specific to PR1 protein and protein-antibody complexes were detected with an ECL kit from Amersham.\nPR gene expression is both induced by SA and associated with the development of SAR. Therefore, it was of interest to test whether SA's mechanism of action for the induction of PR genes was via its inhibition of catalases which leads to enhanced H2 O2 levels. To address this question, H2 O2 abundance was artificially raised in tobacco leaves by treating with H2 O2 or compounds which either inhibit the catalase activity, like SA itself, or promote generation of H2 O2 in vivo. […]"}, "catalase": {"tested_on": "catalase", "experiment": "In vivo catalase activity in tobacco suspension cells (oxygen electrode)", "type": "cell-based", "procedure": "This was determined by adding increasing concentrations of SA or INA to tobacco suspension cells (derived from cultivar Xanthi nc), as described below. The tobacco suspension cell culture was grown in the dark in MS medium at approximately 22° C. with agitation (160 rpm). Cells were maintained by diluting 10-fold every 5 days. For experimentation, 5 ml of suspension cells obtained 3 days after dilution was transferred to a 25 ml Erlenmeyer flask and agitated (100 rpm) at room temperature in the absence or presence of SA or INA which had been adjusted to pH 5.8. After 1 hr, 1 ml of the treated cell suspension was transferred to 7 ml of fresh MS medium containing SA or INA in a 10 ml beaker (density was approximately 6 mg cells per ml). Cells were maintained in suspension with a magnetic stir bar. In vivo catalase activity was determined by measuring, with an oxygen electrode, the rate of H2 O2 -dependent O2 production immediately after addition of H2 O2 to 10 mM final concentration."}, "H2 O2": {"tested_on": "H2 O2", "experiment": "Abundance of H2O2 in treated tobacco leaves", "type": "in vivo", "settings": "FIG. 11", "source_text": "The abundance of H2 O2 increased in SA- or 3AT-treated tobacco leaves by 50-60% over the control levels observed in water-treated leaves. […] Thus, elevated levels of H2 O2, and in turn, enhanced oxidative stress in vivo, were consistent with inhibition of catalase activity by SA observed in vitro."}}}
{"smiles": "O[C@H](CS)[C@H](O)CS", "note": "(racemic) [dithiothreitol]", "values": [{"measurement": "Effect on salicylic acid binding activity of SABP", "setting": "[1]", "result": "affected"}]}
{"smiles": "O=C1O[C@H]([C@@H](O)CO)C(O)=C1O", "note": "[ascorbic acid]", "values": [{"measurement": "Effect on salicylic acid binding activity of SABP", "setting": "[1]", "result": "little inhibitory effect"}]}
{"smiles": "OCCS", "note": "[beta-mercaptoethanol]", "values": [{"measurement": "Effect on salicylic acid binding activity of SABP", "setting": "[1]", "result": "affected"}]}
{"smiles": "O=C(O)c1cc(Cl)nc(Cl)c1", "note": "[INA, 2,6-dichloroisonicotinic acid]", "values": [{"measurement": "Reduction in lesion size (%)", "setting": "TMV; TMV infection six days after injection, lesions measured seven days post infection, treated vs untreated leaf half", "result": 72, "unit": "%"}, {"measurement": "Activity", "setting": "horseradish peroxidase; HRP, 100 μM compound", "result": "236 ± 8 μmols of oxidized substrate mi"}, {"measurement": "inhibition at 100 µM", "setting": "horseradish peroxidase; HRP, 100 μM compound", "result": 1, "unit": "%"}, {"measurement": "Activity", "setting": "horseradish peroxidase; HRP, 1,000 μM compound", "result": "242 ± 16 μmols of oxidized substrate mi"}, {"measurement": "inhibition at 1000 µM", "setting": "horseradish peroxidase; HRP, 1,000 μM compound", "result": 0, "unit": "%"}, {"measurement": "Activity", "setting": "guaiacol peroxidases; POX, 100 μM compound", "result": "2.8 ± 0.4 μmols of oxidized substrate mi"}, {"measurement": "Inhibition", "setting": "guaiacol peroxidases; POX, 100 μM compound", "result": 0, "unit": "%"}, {"measurement": "Activity", "setting": "guaiacol peroxidases; POX, 1,000 μM compound", "result": "2.7 ± 0.4 μmols of oxidized substrate mi"}, {"measurement": "Inhibition", "setting": "guaiacol peroxidases; POX, 1,000 μM compound", "result": 3, "unit": "%"}, {"measurement": "IC50", "setting": "ascorbate peroxidase; 750 μM ascorbate, 25 to 500 μM compound, FIG. 17, read-out: Concentration necessary for 50% inhibition (I50) of ascorbate peroxidase", "result": 95, "unit": "µM"}, {"measurement": "Activity", "setting": "ascorbate peroxidase; APX, 100 μM compound", "result": "2.25 ± 0.4 μmols of oxidized substrate mi"}, {"measurement": "Inhibition", "setting": "ascorbate peroxidase; APX, 100 μM compound", "result": 54, "unit": "%"}, {"measurement": "Activity", "setting": "ascorbate peroxidase; APX, 1,000 μM compound", "result": "0.24 ± 0.2 μmols of oxidized substrate mi"}, {"measurement": "Inhibition", "setting": "ascorbate peroxidase; APX, 1,000 μM compound", "result": 95, "unit": "%"}]}
{"smiles": "O=C(O)c1cc(Cl)cc(Cl)c1O", "note": "[3,5-Dichlorosalicylic acid]", "values": [{"measurement": "Enhanced resistance to TMV infection (reduction in lesion size)", "setting": "TMV", "result": "enhanced resistance to TMV infection"}, {"measurement": "Inhibition of binding of 14C-labeled SA to SABP/catalase in vitro (in words)", "setting": "SABP/catalase", "result": "very effectively inhibited"}, {"measurement": "Induction of PR-1 protein synthesis / PR-1 gene induction (in words)", "setting": "PR1 genes", "result": "potent inducers of PR-1 protein synthesis"}, {"measurement": "% Inhibition of ascorbate peroxidase", "setting": "ascorbate peroxidase", "result": "59 ± 5", "unit": "%"}, {"measurement": "Inhibition of catalase activity in vivo (in words)", "setting": "catalase", "result": "very effectively inhibited catalase activity"}]}
{"smiles": "Nc1nc[nH]n1", "note": "[3AT, 3-amino-1,2,4-triazole]", "values": [{"measurement": "Increase in abundance of H2O2 over water-treated leaves", "setting": "H2 O2", "result": "50-60%"}, {"measurement": "Induction of PR1 gene expression", "setting": "PR1 genes; tobacco leaves", "result": "induced the expression of PR-1 genes"}]}
{"smiles": "O=C(O)c1cc(Cl)ccc1O", "note": "[5-Chlorosalicylic acid]", "values": [{"measurement": "Enhanced resistance to TMV infection (reduction in lesion size)", "setting": "TMV", "result": "enhanced resistance to TMV infection"}, {"measurement": "Inhibition of binding of 14C-labeled SA to SABP/catalase in vitro (in words)", "setting": "SABP/catalase", "result": "very effectively inhibited"}, {"measurement": "Induction of PR-1 protein synthesis / PR-1 gene induction (in words)", "setting": "PR1 genes", "result": "potent inducers of PR-1 protein synthesis"}, {"measurement": "% Inhibition of ascorbate peroxidase", "setting": "ascorbate peroxidase", "result": "73 ± 5", "unit": "%"}, {"measurement": "Inhibition of catalase activity in vivo (in words)", "setting": "catalase", "result": "very effectively inhibited catalase activity"}]}
